Measured values reported in patent publication EP4700025A1, “AMIDE COMPOUND, PHARMACEUTICAL COMPOSITION COMPRISING SAME, AND USE THEREOF” (Suzhou Genhouse Bio Co., Ltd., priority 2023, dated 2024).
pEC50: −log10 of the molar value.

Assays:
Format in all cases: cell-based
SDMA [1] = assay: SDMA Inhibition Assay in HCT-116 cells; conditions: Homo sapiens, HCT-116, 96 hours
Procedure: (§1) The next day, the cells were treated with the compounds at different concentrations (with an initial concentration of 10 µM, 5-fold dilution, 9 concentration gradients). After 96 hours, the culture medium was pipetted out and the cells were washed 2 times with 100 µL of PBS. The cells were then fixed with 4% paraformaldehyde and incubated at room temperature for 20 min. The fixative solution was discarded, and the cells were washed with PBS. 150 µL of specialized blocking solution (containing 1% Triton-100) was added to each well for blocking at room temperature for 2 hours, and the plate was washed with PBS to remove excess blocking solution. […] The cells were incubated at 4 °C overnight. The next day, the cells were separately washed 2 times with 1× PBST. […] The cells were incubated at room temperature for 2 hours. The cells were washed 2 times with 1× PBST and 1 time with PBS. Fluorescence signals at 700 nm and 800 nm were separately detected using a Li-COR Odyssey two-color near-infrared laser imager. The inhibition rates were calculated, and the EC50 values were determined by fitting using the GraphPad Prism 7.0 software. Table 3. Inhibition of SDMA by test compounds

HCT-116 = assay: CCK8 proliferation inhibition, HCT-116; conditions: Homo sapiens, 192 h, CCK8, 8 days after drug treatment
Procedure: (§2) The above normally growing cells were digested with a cell trypsinization solution, centrifuged, counted, and seeded into a 96-well plate at an appropriate cell density (2000 cells/well) at 100 µL/well. The next day after cell seeding, the compounds at different concentrations were added to the wells. Three replicate wells were set for each concentration point, and a corresponding DMSO negative control group was also set. CCK8 solution was added to each well 8 days after drug treatment. The plate was incubated at 37 °C for a period of time (OD450 of the vehicle group reached 1.0 or higher) before the absorbance at 450 nm was read using a microplate reader. The inhibition rates were calculated, and the EC50 values were determined by fitting using the GraphPad Prism 7.0 software. Table 2. EC50 values of compounds at cellular level

SDMA [2] = assay: SDMA Inhibition Assay in HCT-116-MTAP^-/- cells; conditions: Homo sapiens, 96 hours
Procedure: as §1

HCT-116-MTAP^-/- = assay: CCK8 proliferation inhibition, HCT-116-MTAP^-/-; conditions: Homo sapiens, 192 h; HCT-116-MTAP^-/- (MTAP-deficient); CCK8, 8 days after drug treatment
Procedure: as §2

A549 = assay: CCK8 proliferation inhibition, A549; conditions: Homo sapiens, 192 h, CCK8, 8 days after drug treatment
Procedure: as §2

SDMA [3] = assay: SDMA Inhibition Assay in A549 cells; conditions: Homo sapiens, A549, 96 hours
Procedure: as §1

| pEC50 (SDMA [1]) | pEC50 (HCT-116) | pEC50 (SDMA [2]) | pEC50 (HCT-116-MTAP^-/-) | pEC50 (A549) | pEC50 (SDMA [3]) | SMILES |
| --- | --- | --- | --- | --- | --- | --- |
| 6.90 | 6.39 | 8.70 | 8.19 | 7.41 | 8.72 | Cn1ncc2c(N)nc3cc(F)c(C(=O)N(Cc4ccc5c(c4)OC(F)(F)O5)C[C@H]4COCCO4)cc3c21 [Example I-30] |
| 6.54 | 5.92 | 8.59 | 8.21 | 7.30 | 8.57 | Cn1ncc2c(N)nc3cc(F)c(C(=O)N(Cc4ccc5c(c4)OC(F)(F)O5)C4COC4)cc3c21 [Example I-29] |
| 6.92 | 6.29 | 9.00 | 8.38 | 7.61 | 9.10 | Cn1ncc2c(N)nc3cc(F)c(C(=O)N(Cc4ccc5c(c4)OC(F)(F)O5)C[C@@H]4COCCO4)cc3c21 [Example I-27] |
|  | 6.03 | 8.96 | 8.25 | 7.73 | 9.22 | Cn1ncc2c(N)nc3cc(F)c(C(=O)N(Cc4ccc5c(c4)OC(F)(F)O5)[C@@H]4CCOC4)cc3c21 [Example I-22] |
| 6.43 | 5.92 | 8.28 | 8.10 | 7.43 | 8.70 | CC(C)N(Cc1ccc2c(c1)OC(F)(F)O2)C(=O)c1ccc2nc(N)c3cnn(C)c3c2c1 [Example I-14] |
|  | 6.54 | 9.30 | 8.57 | 8.05 | 9.52 | C[C@@H]1COCC(c2ccc3c(c2)OC(F)(F)O3)N1C(=O)c1ccc2nc(N)c3cnn(C)c3c2c1 (stereo partly drawn) [Example I-12] |
|  |  | 8.77 | 8.49 | 8.10 | 9.00 | COC[C@@H](C)N(Cc1ccc2c(c1)OC(F)(F)O2)C(=O)c1cc2c(cc1F)nc(N)c1cnn(C)c12 [Example I-24] |
| 7.21 | 6.17 | 8.74 | 8.38 | 7.54 | 8.89 | Cn1ncc2c(N)nc3cc(C#N)c(C(=O)N(Cc4ccc5c(c4)OC(F)(F)O5)C4CC4)cc3c21 [Example I-54] |
|  |  | 9.40 | 9.05 | 8.60 | 9.52 | C[C@@H]1COCC(c2ccc3c(c2)OC(F)(F)O3)N1C(=O)c1cc2c(cc1F)nc(N)c1cnn(C)c12 (stereo partly drawn) [Example I-11] |
|  | 6.41 | 8.70 | 8.62 | 7.56 | 8.72 | CCN(Cc1ccc2c(c1)OC(F)(F)O2)C(=O)c1cc2c(cc1F)nc(N)c1cnn(C)c12 [Example I-6] |

| SMILES | pEC50 (SDMA [1]) | pEC50 (HCT-116) | pEC50 (SDMA [2]) | pEC50 (HCT-116-MTAP^-/-) | pEC50 (A549) | pEC50 (SDMA [3]) |
| --- | --- | --- | --- | --- | --- | --- |
| Cn1ncc2c(N)nc3cc(F)c(C(=O)N4CCCC[C@@H]4c4ccc5c(c4)OC(F)(F)O5)cc3c21 [Example I-80] | 7.19 | 6.70 | 9.05 | 8.33 | 7.89 | 8.66 |
| CC1OCc2c1c(N)nc1cc(F)c(C(=O)N3CCOC[C@@H]3c3ccc4c(c3)OC(F)(F)O4)cc21 (stereo partly drawn) [Example I-34] | 6.53 | 5.79 | 8.51 | 8.05 | 7.15 | 8.55 |
| Cn1ncc2c(N)nc3cnc(C(=O)N4CCCC[C@@H]4c4ccc5c(c4)OC(F)(F)O5)cc3c21 [Example I-111] | 6.60 | 5.66 | 9.00 | 7.82 | 7.11 | 8.80 |
| CC1OCc2c1c(N)nc1cc(F)c(C(=O)N3C(c4ccc5c(c4)OC(F)(F)O5)COC[C@H]3C)cc21 (stereo partly drawn) [Example I-39] |  |  | 9.15 | 8.60 | 7.73 | 9.05 |
| CC1OCc2c1c(N)nc1cc(F)c(C(=O)N3CCOC[C@@H]3c3ccc4c(c3)OC(F)(F)O4)cc21 (single isomer, unassigned) [I-34 (PEAK2)] | 7.22 | 6.01 | 8.96 | 8.08 | 7.36 | 8.89 |
